Experimental findings from paper PMC4861429, “Molecular Insights into Toluene Sensing in the TodS/TodT Signal Transduction System” (The Journal of Biological Chemistry, 2016) are described below.

Holding throughout (test): ITC
Common to all, as to format: binding

In experiment [1] the target is T1, PAS1(23–168); dimerization helix-containing PAS1 of TodS (Pseudomonas putida, UniProt A5W4E3).
T1 construct: PAS1 sensor domain with dimerization helix, residues 23-168; N-terminal His6 tag kept; E. coli C41(DE3); dimer in solution
T1 sequence (A5W4E3 23-168): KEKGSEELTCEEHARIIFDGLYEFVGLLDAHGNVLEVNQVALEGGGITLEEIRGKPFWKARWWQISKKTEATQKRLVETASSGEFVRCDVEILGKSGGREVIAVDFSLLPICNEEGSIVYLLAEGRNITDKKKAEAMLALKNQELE

For experiment [2], the target named is T2, PAS1(23–168); dimerization helix-containing PAS1 of TodS (Pseudomonas putida, UniProt A5W4E3, I114V).
T2 construct: PAS1 sensor domain with dimerization helix, residues 23-168; N-terminal His6 tag kept; E. coli C41(DE3); dimer in solution
T2 sequence (A5W4E3 23-168 I114V): as the sequence (A5W4E3 23-168) above, with I92V counted along it

Experiment [3] addresses T3, PAS1(23–168); dimerization helix-containing PAS1 of TodS (Pseudomonas putida, UniProt A5W4E3, W85H).
T3 construct: PAS1 sensor domain with dimerization helix, residues 23-168; N-terminal His6 tag kept; E. coli C41(DE3); dimer in solution

Experiment [4] deals with T4, PAS1(23–168); dimerization helix-containing PAS1 of TodS (Pseudomonas putida, UniProt A5W4E3, F46A).
T4 construct: PAS1 sensor domain with dimerization helix, residues 23-168; N-terminal His6 tag kept; E. coli C41(DE3); dimer in solution
T4 sequence (A5W4E3 23-168 F46A): as the sequence (A5W4E3 23-168) above, with F24A counted along it

The target in experiment [5] is T5, PAS1(23–168); dimerization helix-containing PAS1 of TodS (Pseudomonas putida, UniProt A5W4E3, E146A).
T5 construct: PAS1 sensor domain with dimerization helix, residues 23-168; N-terminal His6 tag kept; E. coli C41(DE3); dimer in solution
T5 sequence (A5W4E3 23-168, stated change not applied): as the sequence (A5W4E3 23-168) above

The target in experiment [6] is T6, PAS1(23–168); dimerization helix-containing PAS1 of TodS (Pseudomonas putida, UniProt A5W4E3, V59A).
T6 construct: PAS1 sensor domain with dimerization helix, residues 23-168; N-terminal His6 tag kept; E. coli C41(DE3); dimer in solution
T6 sequence (A5W4E3 23-168 V59A): as the sequence (A5W4E3 23-168) above, with V37A counted along it

Experiment [7] deals with T7, PAS1(23–168); dimerization helix-containing PAS1 of TodS (Pseudomonas putida, UniProt A5W4E3, F79Y).
T7 construct: PAS1 sensor domain with dimerization helix, residues 23-168; N-terminal His6 tag kept; E. coli C41(DE3); dimer in solution
T7 sequence (A5W4E3 23-168 F79Y): as the sequence (A5W4E3 23-168) above, with F57Y counted along it

Structures are written as SMILES.

T3 sequence (A5W4E3 23-168 W85H): as the sequence (A5W4E3 23-168) above, with W63H counted along it

With `Cc1cccc(C)c1` [m-xylene], the figures for the Kd in experiment [1] and in experiment [2] were 9.5 µM and 6.1 µM, respectively.

Take `Cc1ccccc1` [toluene]: the equilibrium dissociation constant (Kd) was 10.6 µM in experiment [3]; 95.2 µM in experiment [4]; 8.5 µM in experiment [1]; 8.4 µM in experiment [2]; 9.6 µM in experiment [5]; 14.6 µM in experiment [6]. This compound also returned a Kd in experiment [7] of 71.4 µM.

In general, Kd refers to the equilibrium constant for the complex coming apart. The low end stands for a tighter complex, the high end for a looser complex.
